Experimental data published in US6517836B1, “Nitrophenylaziridine compounds and their use as prodrugs” (Auckland Uniservices Limited, priority 1998, dated 2003).
Where two headings read alike, the source gives them in different places.

Key:
[1] = system: Chinese hamster fibroblast NR+ line (T79-A3), NR transfectant; experiment: Cytotoxicity, 18 h drug exposure, V79 NR+ line (T79-A3); assay type: cell-based; conditions: for IC50: read-out: V-79 NR+ IC50; for V-79 ratio of IC50s: T78-1 vs T79-A3, inter-experiment average
From the text: (§1) The Chinese hamster fibroblast NR− line (T78-1) is a V79/4 Chinese hamster fibroblast transfected with an empty shuttle vector, while the NR+ line (T79-A3) is the corresponding NR transfectant. The human colon carcinoma NR− line (WIDR) is wild-type, while the NR+ line (WC14 10) is the corresponding NR transfectant. The human ovarian carcinoma NR− line (SKOV3) is wild-type, while the NR+ line (SC3.2) is the corresponding NR transfectant. EMT6 is a mouse mammary carcinoma line, and EN2A is the NR-transformed counterpart.

[2] = system: human colon carcinoma NR− line (WIDR), wild-type; experiment: Cytotoxicity, 18 h drug exposure, WiDr NR− line; assay type: cell-based; conditions: read-out: WiDr NR− IC50
From the text: as §1

[3] = system: human ovarian carcinoma NR− line (SKOV3), wild-type; experiment: Cytotoxicity, 18 h drug exposure, SKOV3 NR− line; assay type: cell-based; conditions: read-out: SKOV NR− IC50
From the text: as §1

[4] = system: human colon carcinoma NR+ line (WC14 10), NR transfectant; experiment: Cytotoxicity, 18 h drug exposure, WiDr NR+ line (WC14 10); assay type: cell-based; conditions: for IC50: read-out: WiDr NR+ IC50; for WiDr ratio of IC50s: WIDR vs WC14 10, inter-experiment average
From the text: as §1

[5] = system: Chinese hamster fibroblast NR− line (T78-1), V79/4 transfected with an empty shuttle vector; experiment: Cytotoxicity, 18 h drug exposure, V79 NR− line (T78-1); assay type: cell-based; conditions: read-out: V-79 NR− IC50
From the text: as §1

[6] = system: human ovarian carcinoma NR+ line (SC3.2), NR transfectant; experiment: Cytotoxicity, 18 h drug exposure, SKOV NR+ line (SC3.2); assay type: cell-based; conditions: for IC50: read-out: SKOV NR+ IC50; for SKOV ratio of IC50s: SKOV3 vs SC3.2, inter-experiment average
From the text: as §1

[7] = system: EN2A, NR-transformed counterpart of EMT6; experiment: Cytotoxicity, 18 h drug exposure, EMT6 NR+ line (EN2A); assay type: cell-based, mouse; conditions: for EMT6 ratio of IC50s: EMT6 vs EN2A, inter-experiment average; for IC50: read-out: EMT6 NR+ IC50
From the text: as §1

[8] = system: EMT6 mouse mammary carcinoma line; experiment: Cytotoxicity, 18 h drug exposure, EMT6 NR− line; assay type: cell-based; conditions: read-out: EMT6 NR− IC50
From the text: as §1

[9] = Cricetulus griseus, Fibroblast, 18 h
[10] = Cricetulus griseus, T78-1, 18 h
[11] = Cricetulus griseus, Fibroblast, T79-A3 cells, 18 h drug exposure
[12] = Homo sapiens, WIDR cells, 18 h drug exposure
[13] = Homo sapiens, SK-OV-3, SKOV3 cells, 18 h drug exposure
[14] = Homo sapiens, WiDr, WC14 10 cells, 18 h drug exposure
[15] = Cricetulus griseus, T78-1 cells, 18 h drug exposure
[16] = Homo sapiens, SC3.2 cells, 18 h drug exposure
[17] = Mus musculus, EMT6, EN2A cells, 18 h drug exposure
[18] = Mus musculus, EMT6 cells, 18 h drug exposure
[19] = T79-A3 cells, 18 h drug exposure
[20] = SKOV3 cells, 18 h drug exposure
[21] = WC14 10 cells, 18 h drug exposure
[22] = T78-1 cells, 18 h drug exposure
[23] = SC3.2 cells, 18 h drug exposure

| SMILES | V-79 ratio of IC50s [1] | WiDr ratio of IC50s [4] | SKOV ratio of IC50s [6] | EMT6 ratio of IC50s [7] | IC50 [1, 11] | IC50 [2, 12] | IC50 [3, 13] | IC50 [4, 14] | IC50 [5, 15] | IC50 [6, 16] | further results |
| --- | --- | --- | --- | --- | --- | --- | --- | --- | --- | --- | --- |
| NC(=O)c1cc([N+](=O)[O-])c(Cl)cc1N1CC1 | – | – | – | – | – | – | – | – | – | – | melting point: 155 °C |
| NC(=O)c1ccc(Cl)c([N+](=O)[O-])c1N1CC1 | – | – | – | – | – | – | – | – | – | – | melting point: 216 °C |
| NC(=O)c1cc(N2CC2)c([N+](=O)[O-])cc1[N+](=O)[O-] [CB1954, 5-(aziridin-1-yl)-2,4-dinitrobenzamide, reference compound] | 1200 | 51 | 357 | 1100 | – | – | – | – | – | – | IC50 [1, 9]: 0.3 µM; IC50 ([2]; Homo sapiens, WiDr, 18 h): 56 µM; IC50 ([3]; Homo sapiens, SK-OV-3, 18 h): 182 µM; IC50 ([4]; Homo sapiens, WiDr, 18 h): 1.2 µM; IC50 [5, 10]: 395 µM; IC50 ([6]; Homo sapiens, 18 h): 0.58 µM; IC50 ([7]; Mus musculus, EMT6, 18 h): 0.08 µM; IC50 ([8]; Mus musculus, EMT6, 18 h): 90 µM |
| O=C(NCC(O)CO)c1cc(N2CC2)c([N+](=O)[O-])cc1[N+](=O)[O-] (centres unmarked) [Compound 2, N-(2,3-dihydroxypropyl)-5-(aziridin-1-yl)-2,4-dinitrobenzamide] | 381 | 49 | 84 | 86 | 0.71 µM | 147 µM | 170 µM | 3.7 µM | 210 µM | 2.3 µM | IC50 [7, 17]: 1.1 µM; IC50 [8, 18]: 90 µM |
| O=C(NCCN1CCOCC1)c1cc(N2CC2)c([N+](=O)[O-])cc1[N+](=O)[O-] [Compound 3, 5-(aziridin-1-yl)-N-[2-(4-morpholino)ethyl]-2,4-dinitrobenzamide] | 4160 | 183 | 1100 | 4505 | – | – | – | – | – | – | IC50 [1, 19]: 0.15 µM; IC50 ([2]; WIDR cells, 18 h drug exposure): 131 µM; IC50 [3, 20]: 494 µM; IC50 [4, 21]: 0.72 µM; IC50 [5, 22]: 571 µM; IC50 [6, 23]: 0.45 µM; IC50 ([7]; EN2A cells, 18 h drug exposure): 0.061 µM; IC50 ([8]; EMT6 cells, 18 h drug exposure): 229 µM |
| CN(CCN1CCOCC1)C(=O)c1cc(N2CC2)c([N+](=O)[O-])cc1[N+](=O)[O-] [Compound 4, 5-(aziridin-1-yl)-N-methyl-N-[2-(4-morpholino)ethyl]-2,4-dinitrobenzamide] | 235 | 21 | 46 | – | – | – | – | – | – | – | IC50 [1, 19]: 1.8 µM; IC50 ([2]; WIDR cells, 18 h drug exposure): 170 µM; IC50 [3, 20]: 533 µM; IC50 [4, 21]: 8.1 µM; IC50 [5, 22]: 364 µM; IC50 [6, 23]: 13 µM |
| O=C(NCCCN1CCOCC1)c1cc(N2CC2)c([N+](=O)[O-])cc1[N+](=O)[O-] [Compound 5, 5-(aziridin-1-yl)-N-[3-(4-morpholino)propyl]-2,4-dinitrobenzamide] | 6210 | 120 | 730 | – | – | – | – | – | – | – | IC50 [1, 19]: 0.048 µM; IC50 ([2]; WIDR cells, 18 h drug exposure): 30 µM; IC50 [3, 20]: 122 µM; IC50 [4, 21]: 0.23 µM; IC50 [5, 22]: 255 µM; IC50 [6, 23]: 0.15 µM |
| O=C(NCCCCN1CCOCC1)c1cc(N2CC2)c([N+](=O)[O-])cc1[N+](=O)[O-] [Compound 6, N-[4-(4-morpholino)butyl]-5-(aziridin-1-yl)-2,4-dinitrobenzamide] | 1210 | 93 | 510 | – | – | – | – | – | – | – | IC50 [1, 19]: 0.25 µM; IC50 ([2]; WIDR cells, 18 h drug exposure): 28 µM; IC50 [3, 20]: 151 µM; IC50 [4, 21]: 0.31 µM; IC50 [5, 22]: 237 µM; IC50 [6, 23]: 0.3 µM |
| O=C(NCCn1ccnc1)c1cc(N2CC2)c([N+](=O)[O-])cc1[N+](=O)[O-] [Compound 7, 5-(aziridin-1-yl)-N-[2-(imidazol-1-yl)ethyl]-2,4-dinitrobenzamide] | 1170 | 48 | 104 | – | 0.39 µM | 47 µM | 61 µM | 1 µM | 420 µM | 0.58 µM | – |
| COC(=O)CCNC(=O)c1cc(N2CC2)c([N+](=O)[O-])cc1[N+](=O)[O-] [Compound 8, 5-(aziridin-1-yl)-N-[2-(methoxycarbonyl)ethyl]-2,4-dinitrobenzamide] | 1580 | 51 | 270 | – | – | – | – | – | – | – | IC50 [1, 9]: 0.4 µM; IC50 ([2]; Homo sapiens, WiDr, 18 h): 124 µM; IC50 ([3]; Homo sapiens, SK-OV-3, 18 h): 677 µM; IC50 ([4]; Homo sapiens, WiDr, 18 h): 2.3 µM; IC50 [5, 10]: 581 µM; IC50 ([6]; Homo sapiens, 18 h): 2.5 µM |
| NC(=O)c1ccc([N+](=O)[O-])c(N2CC2)c1 [Compound 9, 3-(aziridin-1-yl)-4-nitrobenzamide] | 1.4 | 1.6 | 1.6 | – | 62 µM | 102 µM | 93 µM | 62 µM | 108 µM | 61 µM | – |
| CS(=O)(=O)c1cc([N+](=O)[O-])c(N2CC2)cc1C(=O)NCC(O)CO (centres unmarked) [Compound 10, 5-(aziridin-1-yl)-N-(2,3-dihydroxypropyl)-2-(methylsulfonyl)-4-nitrobenzamide] | 87 | 33 | 159 | 124 | 8.8 µM | 826 µM | 920 µM | 26 µM | 641 µM | 6.2 µM | IC50 [7, 17]: 3.7 µM; IC50 [8, 18]: 454 µM |
| NC(=O)c1cc(N2CC2)ccc1[N+](=O)[O-] [Compound 11, 5-(aziridin-1-yl)-2-nitrobenzamide] | 1.5 | 1.4 | 1.4 | – | 81 µM | 126 µM | 129 µM | 89 µM | 121 µM | 102 µM | – |
| CS(=O)(=O)c1cc([N+](=O)[O-])c(C(N)=O)cc1N1CC1 [Compound 12, 5-(aziridin-1-yl)-4-(methylsulfonyl)-2-nitrobenzamide] | 12 | 10 | 19 | – | 40 µM | 224 µM | 393 µM | 22 µM | 419 µM | 22 µM | – |
| NC(=O)c1c([N+](=O)[O-])ccc(N2CC2)c1[N+](=O)[O-] [Compound 13, 3-(aziridin-1-yl)-2,6-dinitrobenzamide] | 3.8 | 5.9 | 9.5 | 10 | 135 µM | 312 µM | 584 µM | 58 µM | 437 µM | 66 µM | IC50 [7, 17]: 27 µM; IC50 [8, 18]: 287 µM |
| NC(=O)c1cc([N+](=O)[O-])cc([N+](=O)[O-])c1N1CC1 [Compound 14, 2-(aziridin-1-yl)-3,5-dinitrobenzamide] | 864 | 85 | 280 | 626 | 1.2 µM | 1080 µM | 1700 µM | 13 µM | 1080 µM | 6.1 µM | IC50 [7, 17]: 1.3 µM; IC50 [8, 18]: 769 µM |
| O=C(NCC(O)CO)c1cc([N+](=O)[O-])cc([N+](=O)[O-])c1N1CC1 (centres unmarked) [Compound 17, 2-(aziridin-1-yl)-N-(2,3-dihydroxypropyl)-3,5-dinitrobenzamide] | 208 | 71 | 184 | – | 6 µM | 878 µM | 1300 µM | 12 µM | 1440 µM | 7.3 µM | – |
| O=C(NCCN1CCOCC1)c1cc([N+](=O)[O-])cc([N+](=O)[O-])c1N1CC1 [Compound 18, 2-(aziridin-1-yl)-N-[2-(4-morpholino)ethyl]-3,5-dinitrobenzamide] | >68 | 32 | >72 | – | – | – | – | – | – | – | IC50 [1, 19]: 7.3 µM; IC50 ([2]; WIDR cells, 18 h drug exposure): 521 µM; IC50 [3, 20]: > 500 µM; IC50 [4, 21]: 18 µM; IC50 [5, 22]: > 500 µM; IC50 [6, 23]: 11 µM |
